# Measurements reported in patent US20250197407A1 (Jazz Pharmaceuticals Ireland Limited, priority 2022, published 2025).
# Molecular target: SOS1/KRAS WT (Homo sapiens (Human), UniProt Q07889)
# Experiment: SOS1/KRAS WT HTRF binding assay (FRET-based protein-protein interaction)
# Settings: inhibition of His6-SOS1 (aa564-1049, 40 nM) binding to GST-KRAS-WT (aa1-188, 40 nM); at least two independent replicates; read-out: SOS1/KRAS WT HTRF Binding assay pIC50 (converted)
# Procedure, shortened: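 Time-resolved FRET at 665 nm, read 4 hr after adding anti-GST-Eu(K) (4 nM) and anti-6His-XL665 (20 nM), tracked SOS1(aa564-1049)–KRAS WT(aa1-188) association. Both proteins were at 40 nM, pre-incubated 60 min at room temperature with compound. Max/min signals came from 0.05% DMSO and 10 μM reference, with four-parameter logistic IC50.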
# Sequence of SOS1/KRAS WT (Q07889 564-1049): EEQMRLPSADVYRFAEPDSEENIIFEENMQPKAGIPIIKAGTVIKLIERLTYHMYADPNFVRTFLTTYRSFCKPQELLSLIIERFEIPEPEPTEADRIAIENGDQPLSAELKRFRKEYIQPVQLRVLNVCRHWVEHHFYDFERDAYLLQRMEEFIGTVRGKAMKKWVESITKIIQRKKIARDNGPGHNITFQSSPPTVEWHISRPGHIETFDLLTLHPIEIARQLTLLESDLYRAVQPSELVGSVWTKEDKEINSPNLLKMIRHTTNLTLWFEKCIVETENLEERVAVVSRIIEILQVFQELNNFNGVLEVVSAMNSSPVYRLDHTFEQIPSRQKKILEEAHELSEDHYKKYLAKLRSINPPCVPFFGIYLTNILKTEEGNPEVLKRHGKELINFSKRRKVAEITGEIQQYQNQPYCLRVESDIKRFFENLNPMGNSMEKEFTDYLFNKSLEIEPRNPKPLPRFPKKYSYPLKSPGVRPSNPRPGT
row,SMILES,IC50 [nM]
1,"CCN1C(=O)C(C)(OC)c2cc3c(C)nnc(N[C@H](C)c4cccc(C(F)(F)C(C)(C)O)c4F)c3cc21 (stereo partly drawn) [Compound 170, 1-ethyl-3-methoxy-3,5-dimethyl-8-[[(1R)-1-[3-(1,1-difluoro-2-hydroxy-2-methyl-propyl)-2-fluoro-phenyl]ethyl]amino]pyrrolo[2,3-g]phthalazin-2-one]",9.12
2,"CCOC1(C)C(=O)N(C2CC2)c2cc3c(N[C@H](C)c4cccc(C(F)(F)CO)c4C)nnc(C)c3cc21 (stereo partly drawn) [Compound 167, 1-cyclopropyl-3-ethoxy-3,5-dimethyl-8-[[(1R)-1-[3-(1,1-difluoro-2-hydroxy-ethyl)-2-methyl-phenyl]ethyl]amino]pyrrolo[2,3-g]phthalazin-2-one]",12.6
3,"CCN1C(=O)C(C)(OC)c2cc3c(C)nnc(N[C@H](C)c4cccc(C(F)(F)CO)c4F)c3cc21 (stereo partly drawn) [Compound 172, 1-ethyl-3-methoxy-3,5-dimethyl-8-[[(1R)-1-[3-(1,1-difluoro-2-hydroxy-ethyl)-2-fluoro-phenyl]ethyl]amino]pyrrolo[2,3-g]phthalazin-2-one]",9.77
4,"Cc1nnc(N[C@H](C)c2cccc(C(F)F)c2)c2cc3c(cc12)n(C)c(=O)n3C [Compound 5, 5-[[(1R)-1-[3-(difluoromethyl)phenyl]ethyl]amino]-1,3,8-trimethyl-imidazo[4,5-g]phthalazin-2-one]",39.8
5,"CCOC1(C)C(=O)N(C)c2cc3c(N[C@H](C)c4cccc(C(F)(F)C(C)(C)O)c4F)nnc(C)c3cc21 (stereo partly drawn) [Compound 132, 3-ethoxy-1,3,5-trimethyl-8-[[(1R)-1-[3-(1,1-difluoro-2-hydroxy-2-methyl-propyl)-2-fluoro-phenyl]ethyl]amino]pyrrolo[2,3-g]phthalazin-2-one]",7.94
6,"COC1(C)C(=O)N(C)c2cc3c(C)nnc(N[C@H](C)c4cccc(C(F)(F)CO)c4C)c3cc21 (stereo partly drawn) [Compound 177, 3-methoxy-1,3,8-trimethyl-5-[[(1R)-1-[3-(1,1-difluoro-2-hydroxy-ethyl)-2-methyl-phenyl]ethyl]amino]pyrrolo[3,2-g]phthalazin-2-one]",9.77
7,"Cc1nnc(N[C@H](C)c2cccc(C(F)(F)F)c2)c2cc3c(cc12)n(C)c(=O)n3C(C)C [Compound 12, 3-isopropyl-1,8-dimethyl-5-[[(1R)-1-[3-(trifluoromethyl)phenyl]ethyl]amino]imidazo[4,5-g]phthalazin-2-one]",8.13
8,"Cc1nnc(N[C@H](C)c2cccc(C(F)(F)F)c2)c2cc3c(cc12)C(C)(C)C(=O)N3C [Compound 32, 1,3,3,5-tetramethyl-8-[[(1R)-1-[3-(trifluoromethyl)phenyl]ethyl]amino] pyrrolo[2,3-g]phthalazin-2-one]",10.7
9,"Cc1c([C@@H](C)Nc2nnc(C)c3cc4c(cc23)N(C)C(=O)C42CCOCC2)cccc1C(F)(F)C(C)(C)O [Compound 104, 1,5-dimethyl-8-[[(1R)-1-[3-(1,1-difluoro-2-hydroxy-2-methyl-propyl)-2-methyl-phenyl]ethyl]amino]spiro[pyrrolo[2,3-g]phthalazine-3,4′-tetrahydropyran]-2-one]",24.5
10,"Cc1nnc(N[C@H](C)c2cccc(C(F)F)c2F)c2cc3c(cc12)n(C)c(=O)n3C [Compound 31, 1,3,8-trimethyl-5-[[(1R)-1-[3-(difluoromethyl)-2-fluoro-phenyl]ethyl]amino]imidazo[4,5-g]phthalazin-2-one]",9.55
11,"Cc1nnc(N[C@H](C)c2cccc3[nH]ncc23)c2cc3c(cc12)n(C)c(=O)n3C [Compound 60, 5-[[(1R)-1-(1H-indazol-4-yl)ethyl]amino]-1,3,8-trimethyl-imidazo[4,5-g]phthalazin-2-one]",209
12,"Cc1c(-c2cncnc2)cccc1[C@@H](C)Nc1nnc(C)c2cc3c(cc12)n(C)c(=O)n3C [Compound 153, 1,3,8-trimethyl-5-[[(1R)-1-(2-methyl-3-pyrimidin-5-yl-phenyl)ethyl]amino]imidazo[4,5-g]phthalazin-2-one]",107
13,"Cc1c([C@@H](C)Nc2nnc(C)c3cc4c(cc23)N(C)C(=O)C42CCOCC2)cccc1C(F)(F)CO [Compound 72, 1,5-dimethyl-8-[[(1R)-1-[3-(1,1-difluoro-2-hydroxy-ethyl)-2-methyl-phenyl]ethyl]amino]spiro[pyrrolo [2,3-g]phthalazine-3,4′-tetrahydropyran]-2-one]",9.77
14,"Cc1nnc(N[C@H](C)c2cccc(C(F)(F)C(C)(C)O)c2)c2cc3c(cc12)n(C)c(=O)n3C [Compound 64, 1,3,8-trimethyl-5-[[(1R)-1-[3-(1,1-difluoro-2-hydroxy-2-methyl-propyl)phenyl]ethyl]amino]imidazo [4,5-g]phthalazin-2-one]",8.13
15,"Cc1c(C2=CCOCC2)cccc1[C@@H](C)Nc1nnc(C)c2cc3c(cc12)n(C)c(=O)n3C [Compound 157, 5-[[(1R)-1-[3-(3,6-dihydro-2H-pyran-4-yl)-2-methyl-phenyl]ethyl]amino]-1,3,8-trimethyl-imidazo[4,5-g]phthalazin-2-one]",204
16,"CCC1(OC)C(=O)N(C)c2cc3c(N[C@H](C)c4cccc(C(F)(F)C(C)(C)O)c4)nnc(C)c3cc21 (stereo partly drawn) [Compound 202, 3-ethyl-3-methoxy-1,5-dimethyl-8-[[(1R)-1-[3-(1,1-difluoro-2-hydroxy-2-methyl-propyl)phenyl]ethyl]amino]pyrrolo [2,3-g]phthalazin-2-one]",10.7
17,"Cc1c([C@@H](C)Nc2nnc(C)c3cc4c(cc23)N(C)C(=O)C4(C)C)cccc1C(F)(F)CO [Compound 69, 1,3,3,5-tetramethyl-8-[[(1R)-1-[3-(1,1-difluoro-2-hydroxy-ethyl)-2-methyl-phenyl]ethyl]amino]pyrrolo[2,3-g]phthalazin-2-one]",9.12
18,"Cc1c(C#N)cccc1[C@@H](C)Nc1nnc(C)c2cc3c(cc12)n(C1CC1)c(=O)n3C [Compound 47, 2-methyl-3-[(1R)-1-[(3-cyclopropyl-1,8-dimethyl-2-oxo-imidazo[4,5-g]phthalazin-5-yl)amino]ethyl]benzonitrile]",13.8
19,"CCOC1(C)C(=O)N(C2CC2)c2cc3c(N[C@H](C)c4cccc(C(F)(F)C(C)(C)O)c4C)nnc(C)c3cc21 (stereo partly drawn) [Compound 166, 1-cyclopropyl-3-ethoxy-3,5-dimethyl-8-[[(1R)-1-[3-(1,1-difluoro-2-hydroxy-2-methyl-propyl)-2-methyl-phenyl]ethyl]amino]pyrrolo[2,3-g]phthalazin-2-one]",14.8
20,"CCN1C(=O)C(C)(OC)c2cc3c(C)nnc(N[C@H](C)c4cccc(C(F)(F)C(C)(C)O)c4)c3cc21 (stereo partly drawn) [Compound 173, 1-ethyl-3-methoxy-3,5-dimethyl-8-[[(1R)-1-[3-(1,1-difluoro-2-hydroxy-2-methyl-propyl)phenyl]ethyl]amino]pyrrolo [2,3-g]phthalazin-2-one]",11.7
21,"Cc1nnc(N[C@H](C)c2cccc(C(F)(F)C(C)(C)O)c2F)c2cc3c(cc12)C1(CCCC1)C(=O)N3C [Compound 194, 1′,5′-dimethyl-8′-[[(1R)-1-[3-(1,1-difluoro-2-hydroxy-2-methyl-propyl)-2-fluoro-phenyl]ethyl]amino]spiro [cyclopentane-1,3′-pyrrolo[2,3-g]phthalazine]-2′-one]",8.51
